What is called pIC50 is the IC50 on a negative log10 scale, so that one unit is a factor of ten.

Molecules are shown by their SMILES.

In the first assay the target is Replicase polyprotein 1ab (Severe acute respiratory syndrome coronavirus 2, UniProt P0DTD1). As to the kind of experiment: Inhibition of recombinant SARS CoV-2 main protease by FRET assay.
Conditions: not given
Turning to `Cc1ccc(-n2[se]c3ccccc3c2=O)cc1`, the pIC50 was 5.64.
With `COc1ccc(-n2[se]c3ccccc3c2=O)cc1`, the pIC50 turned out to be 5.903.
On the same count and under the same terms, then `O=c1c2ccccc2[se]n1-c1ccc(F)cc1`, with 5.556; and `O=c1c2ccccc2[se]n1-c1cc(Cl)cc(Cl)c1`, with 6.194.
Same read-out and setting: the figure for `N#Cc1cccc(-n2[se]c3ccccc3c2=O)c1` is 6.42.
Still for that read-out and setting: then `O=c1c2ccccc2[se]n1-c1c(F)cccc1F`, with 5.68; and `O=c1c2ccccc2[se]n1Cc1ccc(F)cc1`, with 6.
As for `CCc1ccc(-n2[se]c3ccccc3c2=O)cc1`, the negative-log IC50 (pIC50) was determined as 5.209.
Still for that read-out and setting: then `COc1ccc(F)cc1-n1[se]c2ccccc2c1=O`, with 5.481.
On the same count and under the same terms, the figure for `COc1cc(F)ccc1-n1[se]c2ccccc2c1=O` is 5.745.
As for `O=c1c2ccccc2[se]n1-c1ccc(Br)cc1`, the pIC50 stood at 5.556.
Same read-out and setting: the figure for `O=c1c2ccccc2[se]n1-c1cccc(Cl)c1` is 6.167.
On the same count and under the same terms, then `O=c1c2ccccc2[se]n1-c1cccc(C(F)(F)F)c1`, with 5.558.
On the same count and under the same terms, then `COc1ccc(Cn2[se]c3ccccc3c2=O)c(OC)c1`, with 6.215.
Regarding `Cc1ccccc1-n1[se]c2ccccc2c1=O`, the pIC50 is recorded as 5.129.

Still in this assay, the particulars now being: read-out: IC50.
Turning to `O=c1c2ccccc2[se]n1-c1ccc(C(F)(F)F)cc1`, the IC50 is 0.9 µM.
On to `COc1ccc2[se]n(-c3ccccc3)c(=O)c2c1`, for which the IC50 was 6.4 µM.
Consider `CCCCCCCc1ccc(-n2[se]c3ccccc3c2=O)cc1`, for which the IC50 came out at 5.56 µM.
On the same count and under the same terms, the figure for `CCCCCCCCc1ccc(-n2[se]c3ccccc3c2=O)cc1` is 2.69 µM.

The assay is the same for the next values; noted with them: read-out: pIC50 (converted).
On to `O=c1c2ccccc2[se]n1-c1ccc(C(F)(F)F)cc1`, for which the IC50 is 0.883 µM.
On the same count and under the same terms, the figure for `COc1ccc2[se]n(-c3ccccc3)c(=O)c2c1` is 6.18 µM.

The record behind these values is ChEMBL document CHEMBL5584249, “Machine learning-based QSAR and LB-PaCS-MD guided design of SARS-CoV-2 main protease inhibitors” (Bioorg Med Chem Lett, 2024).
